According to patent publication US20100234238A1, “METHOD FOR PROFILING KINASE INHIBITORS” (Janssen Pharmaceutica N V, priority 2006, published 2010):

Test system: tyrosine kinase activity in lysates prepared from cell lines
Test: PAMCHIP96 tyrosine peptide array profiling of lysates of 27 cell lines in absence or presence of MTKI
Format: biochemical
Details: 5 μM
Description: PAMGENE technology using the tyrosine peptide PAMCHIP96 allows the kinetic detection of the phosphorylation of 144 tyrosine peptides spotted onto a 3-dimensional porous well of a 96-well plate (www.pamgene.com). This technology can be used to measure the activity of purified kinases and the effects of kinase inhibitors thereon. Phosphotyrosine peptides are detected using a mix of fluorescently labeled anti-phosphotyrosine antibodies. Phosphorylation of peptides can be followed in real time due to the possibility of removing the reaction mix for a few seconds during the assay by a pumping mechanism to allow CCD camera detection of phosphopeptides bound to the fluorescent antibody. These consecutive datapoints (quantified spot images) generate a kinetic curve for each individual peptide, and allow for the calculation of initial velocities and endpoints associated with each individual peptide.
Cells cultured in appropriate medium in T175 flasks, treated with compound if necessary, are harvested at 70-90% confluency.
Media is removed, cells are washed with 10 ml ice cold PBS containing 0.1 mM NaVO4 and lysed in 1 ml of M-PER buffer (PIERCE) containing phosphatase and protease inhibitors (HALT, PIERCE). Cells are collected by scraping, and centrifuged for 10 minutes at 12 000×g. Supernatant lysates are filtered through a 0.2 micrometer filter (Anotop 0.2 μm anopore filter; Whatmann). Lysates are flash frozen in liquid nitrogen and stored at −80C.
Just prior to the PAMCHIP experiment, total protein content is quantitated in the lysates and lysates are diluted to 1 mg/ml in a total volume of 200 μl, with M-PER phosphatase and protease inhibitors (HALT, PIERCE). 10 μg of total lysate (corresponding to 10 μl) will be used per well on the PAMCHIP96.
To all 200 μl lysates 10 units of benzonase (Novagen) is added and lysates are further incubated for 30 min on ice and next centrifuged for 10 minutes at 12 000×g. The supernatant is then 1:1 diluted with compound or DMSO diluted to the appropriate concentration in water, and lysates are further incubated exactly 60 min on ice. Meanwhile, a PAMCHIP96 tyrosine peptide chip (PAMGENE) is blocked with 2% BSA (filtered through a 0.2 μm anopore filter; Whatmann) using the standard setting of a PAMSTATION96 (PAMGENE).
The composition of the kinase buffer is as follows: 1×ABL buffer (NEB), 0.5 mg/ml BSA (from 10 mg/ml NEB stock), 100 μM ATP (dissolved and diluted in 1×ABL buffer), 5 μg/ml PY20-FITC (ExAlpha Biologicals, azide-free preparation). A twofold concentrated kinase buffer is prepared chilled on ice, DMSO or compound is added as appropriate, and the solution is added 1:1 to the (compound treated) ice cold lysates, and immediately applied to a tyrosine peptide PAMCHIP96. The assay is run on a PAMSTATION96 according to standard procedures: after loading of the plate, solution is pumped once onto the wells, a first exposure is read (150 mSec) and then a kinetic reading program (reading every 5 min for 150 mSec) is run for 60 min. Lysates are run in 6 technical replicates for each condition; replicates are always applied horizontally next to each other to avoid vertical strip effects of the chip.
The data (spot images) are further quantified and linked to the peptide identities using EVOLVE PAMGRID software (PAMGENE). The quantified data are then fit to a curve using CurveFitHT software (PAMGENE) using the Vinip2 curve fitting algorithm, applied on the first 30 min of the assay; the initial velocity is derived at the first kinetic time point read. All subsequent data analyses were done on initial velocities (Vini) using the software packages Omniviz and R (Ihaka, R. and Gentlemen, R. (1996) R: a language for data analysis and graphics. J. Comput. Graph. Stat., 5, 299-314).
After replacing the Vini's lower than 0.1 by 0.1, all Vini's were log 2-transformed to approach normality.

COc1cc2ncnc3c2cc1OCCCCCN(C)Cc1ccc(Br)cc1N3 [MTKI, 4,6-ethanediylidenepyrimido[4,5-b][6,1,12]benzoxadiazacyclopentadecine, 17-bromo-8,9,10,11,12,13,14,19-octahydro-20-methoxy-13-methyl-]
ratio of initial velocity of peptide phosphorylation (A431 lysate, CDK7_157_169_S164): 0.53 | ratio of initial velocity of peptide phosphorylation (A431 lysate, CREB1_122_134_Y134/S133): 0.63 | ratio of initial velocity of peptide phosphorylation (A431 lysate, DDR2_733_745_Y740): 0.56 | ratio of initial velocity of peptide phosphorylation (A431 lysate, MK10_216_228_T221/Y223): 0.46 | ratio of initial velocity of peptide phosphorylation (A431 lysate, NCF1_313_325_S315/S320): 0.57 | ratio of initial velocity of peptide phosphorylation (A431 lysate, NPT2_501_513_T508): 0.53 | ratio of initial velocity of peptide phosphorylation (A431 lysate, PECA1_706_718_Y713): 0.72 | ratio of initial velocity of peptide phosphorylation (A431 lysate, PGFRB_768_780_Y771/Y775/Y778): 0.97 | ratio of initial velocity of peptide phosphorylation (A431 lysate, PLCG1_764_776_Y771): 0.82 | ratio of initial velocity of peptide phosphorylation (A431 lysate, PRRX2_202_214_Y214): 0.75 | ratio of initial velocity of peptide phosphorylation (A431 lysate, RASA1_453_465_Y460): 0.62 | ratio of initial velocity of peptide phosphorylation (A431 lysate, STAT2_683_695_Y690): 0.57 | ratio of initial velocity of peptide phosphorylation (A431 lysate, SYN1_2_14_S9): 0.58 | ratio of initial velocity of peptide phosphorylation (A431 lysate, TYRO3_679_691_Y686): 0.52 | ratio of initial velocity of peptide phosphorylation (H322 lysate, CDK7_157_169_S164): 0.88 | ratio of initial velocity of peptide phosphorylation (H322 lysate, CREB1_122_134_Y134/S133): 0.94 | ratio of initial velocity of peptide phosphorylation (H322 lysate, DDR2_733_745_Y740): 0.85 | ratio of initial velocity of peptide phosphorylation (H322 lysate, ENOG_37_49_Y43): 0.76 | ratio of initial velocity of peptide phosphorylation (H322 lysate, MK10_216_228_T221/Y223): 0.76 | ratio of initial velocity of peptide phosphorylation (H322 lysate, NCF1_313_325_S315/S320): 0.88 | ratio of initial velocity of peptide phosphorylation (H322 lysate, NPT2_501_513_T508): 0.88 | ratio of initial velocity of peptide phosphorylation (H322 lysate, PECA1_706_718_Y713): 0.73 | ratio of initial velocity of peptide phosphorylation (H322 lysate, PGFRB_768_780_Y771/Y775/Y778): 0.92 | ratio of initial velocity of peptide phosphorylation (H322 lysate, PLCG1_764_776_Y771): 0.79 | ratio of initial velocity of peptide phosphorylation (H322 lysate, PRRX2_202_214_Y214): 0.85 | ratio of initial velocity of peptide phosphorylation (H322 lysate, RASA1_453_465_Y460): 0.83 | ratio of initial velocity of peptide phosphorylation (H322 lysate, STAT2_683_695_Y690): 0.89 | ratio of initial velocity of peptide phosphorylation (H322 lysate, SYN1_2_14_S9): 0.91 | ratio of initial velocity of peptide phosphorylation (H322 lysate, TYRO3_679_691_Y686): 0.96 | ratio of initial velocity of peptide phosphorylation (H2122 lysate, CDK7_157_169_S164): 0.90 | ratio of initial velocity of peptide phosphorylation (H2122 lysate, CREB1_122_134_Y134/S133): 0.85 | ratio of initial velocity of peptide phosphorylation (H2122 lysate, DDR2_733_745_Y740): 0.81 | ratio of initial velocity of peptide phosphorylation (H2122 lysate, ENOG_37_49_Y43): 0.71 | ratio of initial velocity of peptide phosphorylation (H2122 lysate, MK10_216_228_T221/Y223): 0.79 | ratio of initial velocity of peptide phosphorylation (H2122 lysate, NCF1_313_325_S315/S320): 0.94 | ratio of initial velocity of peptide phosphorylation (H2122 lysate, NPT2_501_513_T508): 0.90 | ratio of initial velocity of peptide phosphorylation (H2122 lysate, PECA1_706_718_Y713): 0.67 | ratio of initial velocity of peptide phosphorylation (H2122 lysate, PLCG1_764_776_Y771): 0.76 | ratio of initial velocity of peptide phosphorylation (H2122 lysate, PRRX2_202_214_Y214): 0.84 | ratio of initial velocity of peptide phosphorylation (H2122 lysate, RASA1_453_465_Y460): 0.78 | ratio of initial velocity of peptide phosphorylation (H2122 lysate, STAT2_683_695_Y690): 0.90 | ratio of initial velocity of peptide phosphorylation (H2122 lysate, SYN1_2_14_S9): 0.91 | ratio of initial velocity of peptide phosphorylation (H2122 lysate, TYRO3_679_691_Y686): 0.95 | ratio of initial velocity of peptide phosphorylation (H3255 lysate, CDK7_157_169_S164): 0.55 | ratio of initial velocity of peptide phosphorylation (H3255 lysate, CREB1_122_134_Y134/S133): 0.73 | ratio of initial velocity of peptide phosphorylation (H3255 lysate, DDR2_733_745_Y740): 0.44 | ratio of initial velocity of peptide phosphorylation (H3255 lysate, ENOG_37_49_Y43): 0.76 | ratio of initial velocity of peptide phosphorylation (H3255 lysate, MK10_216_228_T221/Y223): 0.47 | ratio of initial velocity of peptide phosphorylation (H3255 lysate, NCF1_313_325_S315/S320): 0.59 | ratio of initial velocity of peptide phosphorylation (H3255 lysate, NPT2_501_513_T508): 0.68
